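Method: 48-hour compound exposure of cells in 96-well plates, five concentrations, linear interpolation of endpoints. The concentration for 50% growth inhibition is given as GI50.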 Calls of active or inactive are those of the source. Rule as the data show it: active = GI50 up to about 1.1 µM and inactive = higher.
Tests used:
Assay in all cases: DTP human tumour cell line panel, 48 h
RPMI-8226 = tested on: RPMI-8226
SW-620 = tested on: SW-620
MDA-MB-435 = tested on: MDA-MB-435
OVCAR-5 = tested on: OVCAR-5
HCT-116 = tested on: HCT-116
A549 = tested on: A549
BT-549 = tested on: BT-549
SK-OV-3 = tested on: SK-OV-3
SK-MEL-28 = tested on: SK-MEL-28
M14 = tested on: M14
UO-31 = tested on: UO-31
Hs-578T = tested on: Hs-578T
TK-10 = tested on: TK-10
KM12 = tested on: KM12
SK-MEL-5 = tested on: SK-MEL-5
SK-MEL-2 = tested on: SK-MEL-2
SNB-19 = tested on: SNB-19
SN12C = tested on: SN12C
OVCAR-8 = tested on: OVCAR-8
NCI-H226 = tested on: NCI-H226

Row | Structure (SMILES) | GI50 (RPMI-8226) | GI50 (SW-620) | GI50 (MDA-MB-435) | GI50 (OVCAR-5) | GI50 (HCT-116) | GI50 (A549) | GI50 (BT-549) | GI50 (SK-OV-3) | GI50 (SK-MEL-28) | GI50 (M14) | GI50 (UO-31) | GI50 (Hs-578T) | GI50 (TK-10) | GI50 (KM12) | GI50 (SK-MEL-5) | GI50 (SK-MEL-2) | GI50 (SNB-19) | GI50 (SN12C) | GI50 (OVCAR-8) | GI50 (NCI-H226)
1 | NC1(C(=O)O)CCCC1C(=O)O (stereo not given) | > 100 µM (inactive) | > 100 µM (inactive) | > 100 µM (inactive) | > 100 µM (inactive) | > 100 µM (inactive) | > 100 µM (inactive) | > 100 µM (inactive) | > 100 µM (inactive) | > 100 µM (inactive) | > 100 µM (inactive) | > 100 µM (inactive) | > 100 µM (inactive) | > 100 µM (inactive) | > 100 µM (inactive) | > 100 µM (inactive) | > 100 µM (inactive) | > 100 µM (inactive) | > 100 µM (inactive) | > 100 µM (inactive) | –
2 | COc1ccc(C)cc1NC(=S)C#N | 74.8 µM (inactive) | > 100 µM (inactive) | > 100 µM (inactive) | 29.6 µM (inactive) | > 100 µM (inactive) | > 100 µM (inactive) | 35.2 µM (inactive) | 27.8 µM (inactive) | > 100 µM (inactive) | 30.5 µM (inactive) | – | – | 31.9 µM (inactive) | 36.2 µM (inactive) | > 100 µM (inactive) | 29.2 µM (inactive) | 28.9 µM (inactive) | > 100 µM (inactive) | 27.9 µM (inactive) | 27.5 µM (inactive)
3 | OC1(c2cc3ccccc3s2)CCCCC1 | – | 50.1 µM (inactive) | 46.8 µM (inactive) | 40.8 µM (inactive) | 33.3 µM (inactive) | 40.8 µM (inactive) | 55.7 µM (inactive) | 66.4 µM (inactive) | 81.3 µM (inactive) | 66.8 µM (inactive) | 51.1 µM (inactive) | 28.5 µM (inactive) | 64.4 µM (inactive) | 41.3 µM (inactive) | 34.7 µM (inactive) | – | 82.4 µM (inactive) | 30.9 µM (inactive) | 42.6 µM (inactive) | 80.9 µM (inactive)
4 | Oc1cc(-c2cccc(C(F)(F)F)c2)nc2cc3c(cc12)OCO3 | 1.77 µM (inactive) | 2.21 µM (inactive) | 0.935 µM (active) | 1.49 µM (inactive) | – | 3.97 µM (inactive) | 1.24 µM (inactive) | 2.26 µM (inactive) | 2.87 µM (inactive) | 1.76 µM (inactive) | 8.89 µM (inactive) | 1.66 µM (inactive) | > 50 µM (inactive) | 2.12 µM (inactive) | – | 1.28 µM (inactive) | 2.77 µM (inactive) | 8.75 µM (inactive) | 2.34 µM (inactive) | –
5 | CO/N=C(\C(=O)N(C)n1cnnc1)c1csc(NC(c2ccccc2)(c2ccccc2)c2ccccc2)n1 | > 10 µM (inactive) | > 10 µM (inactive) | – | > 10 µM (inactive) | > 10 µM (inactive) | > 10 µM (inactive) | > 10 µM (inactive) | > 10 µM (inactive) | > 10 µM (inactive) | > 10 µM (inactive) | > 10 µM (inactive) | > 10 µM (inactive) | > 10 µM (inactive) | > 10 µM (inactive) | > 10 µM (inactive) | > 10 µM (inactive) | > 10 µM (inactive) | > 10 µM (inactive) | > 10 µM (inactive) | > 10 µM (inactive)
6 | [N-]=[N+]=CC(=O)OC1CCOCC1 | > 100 µM (inactive) | > 100 µM (inactive) | > 100 µM (inactive) | > 100 µM (inactive) | > 100 µM (inactive) | – | > 100 µM (inactive) | > 100 µM (inactive) | > 100 µM (inactive) | – | > 100 µM (inactive) | – | > 100 µM (inactive) | > 100 µM (inactive) | > 100 µM (inactive) | > 100 µM (inactive) | > 100 µM (inactive) | > 100 µM (inactive) | – | > 100 µM (inactive)
7 | c1cc(-c2ccc(-c3ccc(-c4ccc(-c5ccncc5)o4)cc3)o2)ccn1 | – | 28.2 µM (inactive) | 15.5 µM (inactive) | 24.9 µM (inactive) | 16.1 µM (inactive) | 18.4 µM (inactive) | 15.7 µM (inactive) | 21.1 µM (inactive) | 21.2 µM (inactive) | 17.7 µM (inactive) | 21.5 µM (inactive) | 64.1 µM (inactive) | 17 µM (inactive) | 15.3 µM (inactive) | 13.2 µM (inactive) | – | 18.5 µM (inactive) | 22.4 µM (inactive) | 16.8 µM (inactive) | 27.4 µM (inactive)

Source: ChEMBL document CHEMBL1201862, “PubChem BioAssay data set” (2004)
